In assay [1] the target is T1, chitin synthase 1 of Candida albicans chs2 Δ chs 3 Δ (Candida albicans, UniProt P23316).
T1 construct: Crude enzyme was prepared using the Candida albicans chs2 Δ chs 3 Δ mutant; endogenous in cells; host or cells: Candida albicans chs2Δ/chs2Δ chs3Δ/chs3Δ mutant; 130,000 x g membrane pellet
The assay is described as follows: In vitro enzyme assay for chitin synthase 1 of Candida albicans (enzyme 1). The conditions noted are these: relative to polyoxin D (50% inhibitory activity = value 5). The assay is classed as biochemical. A digest of the protocol: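 Trypsin-activated crude membrane chitin synthase 1 from C. albicans chs2Δ chs3Δ was incubated 90 min at 30 °C with 1.1 mM UDP-[14C]GlcNAc and 2 mM cobalt acetate in Tris-HCl pH 7.5. Filtered TCA precipitate was counted by scintillation; values are scores 1–8 against polyoxin D (5 = same concentration).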

The target of assay [2] is T2, chitin synthase 2 of Saccharomyces cerevisiae ECY38-38A(pAS6) (Saccharomyces cerevisiae, UniProt P14180).
T2 construct: made in house; host or cells: Saccharomyces cerevisiae ECY38-38A (chs1-23 chs2::LEU2 cal1/csd2) carrying plasmid pAS6, grown in galactose medium; 130,000 x g membrane pellet
T2 sequence (P14180 whole entry): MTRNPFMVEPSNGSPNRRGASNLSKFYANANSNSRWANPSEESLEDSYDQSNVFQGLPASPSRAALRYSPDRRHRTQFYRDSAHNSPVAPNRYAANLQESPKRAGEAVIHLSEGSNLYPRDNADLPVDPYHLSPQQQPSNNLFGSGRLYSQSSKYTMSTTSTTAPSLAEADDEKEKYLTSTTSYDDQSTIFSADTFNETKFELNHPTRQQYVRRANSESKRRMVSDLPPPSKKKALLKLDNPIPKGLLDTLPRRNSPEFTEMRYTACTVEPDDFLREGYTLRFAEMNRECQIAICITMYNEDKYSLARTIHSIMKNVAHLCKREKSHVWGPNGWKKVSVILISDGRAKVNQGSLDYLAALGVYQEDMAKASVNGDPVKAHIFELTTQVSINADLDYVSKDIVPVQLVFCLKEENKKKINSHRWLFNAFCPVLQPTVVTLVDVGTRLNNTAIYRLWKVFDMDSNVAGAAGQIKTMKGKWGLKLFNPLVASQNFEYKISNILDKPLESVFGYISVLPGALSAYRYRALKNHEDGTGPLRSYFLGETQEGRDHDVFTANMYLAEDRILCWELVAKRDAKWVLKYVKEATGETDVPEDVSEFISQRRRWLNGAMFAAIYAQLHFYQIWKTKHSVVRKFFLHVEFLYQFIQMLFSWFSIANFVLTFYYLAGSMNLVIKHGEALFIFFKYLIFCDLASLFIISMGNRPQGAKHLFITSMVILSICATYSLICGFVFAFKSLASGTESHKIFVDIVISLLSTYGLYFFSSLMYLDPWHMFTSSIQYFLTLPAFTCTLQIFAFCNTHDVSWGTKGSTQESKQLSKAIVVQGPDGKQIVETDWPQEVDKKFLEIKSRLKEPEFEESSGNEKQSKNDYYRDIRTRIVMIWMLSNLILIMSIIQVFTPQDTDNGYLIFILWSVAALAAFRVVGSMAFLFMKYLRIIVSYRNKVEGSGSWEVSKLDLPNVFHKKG
The assay is described as follows: In vitro enzyme assay for chitin synthase 2 of Saccharomyces cerevisiae (enzyme 2). The format is biochemical. The conditions noted are these: relative to polyoxin D (50% inhibitory activity = value 5). A digest of the protocol: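 Values are scores: 5 means 50% inhibition at the same concentration as polyoxin D, lower scores 2- to 16-fold higher concentration, higher scores ½ to ⅛. Radiolabel from 1.1 mM UDP-[14C]-GlcNAc was incorporated into TCA-insoluble chitin over 90 min at 30 °C (pH 7.5 Tris, 2 mM Co2+). The enzyme was a trypsin-activated membrane fraction from CHS2-only S. cerevisiae ECY38-38A(pAS6).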

For assay [3], the system named is Aspergillus flavus ATCC 64025. The experiment in a line: In vitro antifungal activity (MIC), NCCLS method. The format is cell-based. The conditions noted are these: 48 hours. A digest of the protocol: (§1)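 Two-fold dilutions, final inoculum 5×10^2–2.5×10^3 cell/mL, NCCLS protocol; 48 h culture for these strains. MIC = minimum inhibitory concentration.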
The test system of assay [4] is Aspergillus fumigatus ATCC 16424. The assay is described as follows: In vitro antifungal activity (MIC), NCCLS method. The format is cell-based. The conditions noted are these: 48 hours. A digest of the protocol:
as §1

Assay [5] relates to Aspergillus terreus ATCC 46941. The experiment in a line: In vitro antifungal activity (MIC), NCCLS method. The format is cell-based. The conditions noted are these: 48 hours. A digest of the protocol:
as §1

In assay [6] the test system is Candida albicans A207 (clinical isolate). The experiment in a line: In vitro antifungal activity (MIC), NCCLS method. The assay is classed as cell-based. Particulars: 48 hours. A digest of the protocol:
(§2)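 Broth microdilution per NCCLS: two-fold serial dilutions of test compound inoculated with fungal suspension at a final 5×10^2 to 2.5×10^3 cell/mL. Strains other than Cryptococcus neoformans were incubated 48 hours before MIC reading.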

The test system of assay [7] is Candida albicans ATCC 10231. The assay is described as follows: In vitro antifungal activity (MIC), NCCLS method. The format is cell-based. Particulars: 48 hours. The method in brief:
as §1

Assay [8] concerns Candida glabrata ATCC 48435. The experiment in a line: In vitro antifungal activity (MIC), NCCLS method. The format is cell-based. Particulars: Candida glabrata ATCC 48435; 48 hours. A digest of the protocol:
as §1

Another assay deals with Candida krusei ATCC 6258. The assay is described as follows: In vitro antifungal activity (MIC), NCCLS method. The assay is classed as cell-based. Particulars: 48 hours. The method in brief:
as §1

In assay [9] the test system is Candida lusitaniae ATCC 42720. The assay is described as follows: In vitro antifungal activity (MIC), NCCLS method. The conditions noted are these: 48 hours. The assay is classed as cell-based. A digest of the protocol:
as §1

Assay [10] relates to Candida parapsilosis ATCC 34136. The experiment in a line: In vitro antifungal activity (MIC), NCCLS method. The format is cell-based. The conditions noted are these: Candida parapsilosis ATCC 34136; 48 hours. The method in brief:
as §1

Assay [11] relates to Candida tropicalis ATCC 13803. The experiment in a line: In vitro antifungal activity (MIC), NCCLS method. The format is cell-based. Particulars: 48 hours. The method in brief:
as §1

The test system of assay [12] is Cryptococcus neoformans ATCC 36556. The experiment in a line: In vitro antifungal activity (MIC), NCCLS method. The assay is classed as cell-based. The conditions noted are these: RPMI 1640 medium, 72 hours. The method in brief: as §2
In assay [13] the test system is Mucor ramosissimus ATCC 90286. The assay is described as follows: In vitro antifungal activity (MIC), NCCLS method. The format is cell-based. Particulars: 48 hours. A digest of the protocol: as §1

T1 sequence (P23316 whole entry, stated change not applied): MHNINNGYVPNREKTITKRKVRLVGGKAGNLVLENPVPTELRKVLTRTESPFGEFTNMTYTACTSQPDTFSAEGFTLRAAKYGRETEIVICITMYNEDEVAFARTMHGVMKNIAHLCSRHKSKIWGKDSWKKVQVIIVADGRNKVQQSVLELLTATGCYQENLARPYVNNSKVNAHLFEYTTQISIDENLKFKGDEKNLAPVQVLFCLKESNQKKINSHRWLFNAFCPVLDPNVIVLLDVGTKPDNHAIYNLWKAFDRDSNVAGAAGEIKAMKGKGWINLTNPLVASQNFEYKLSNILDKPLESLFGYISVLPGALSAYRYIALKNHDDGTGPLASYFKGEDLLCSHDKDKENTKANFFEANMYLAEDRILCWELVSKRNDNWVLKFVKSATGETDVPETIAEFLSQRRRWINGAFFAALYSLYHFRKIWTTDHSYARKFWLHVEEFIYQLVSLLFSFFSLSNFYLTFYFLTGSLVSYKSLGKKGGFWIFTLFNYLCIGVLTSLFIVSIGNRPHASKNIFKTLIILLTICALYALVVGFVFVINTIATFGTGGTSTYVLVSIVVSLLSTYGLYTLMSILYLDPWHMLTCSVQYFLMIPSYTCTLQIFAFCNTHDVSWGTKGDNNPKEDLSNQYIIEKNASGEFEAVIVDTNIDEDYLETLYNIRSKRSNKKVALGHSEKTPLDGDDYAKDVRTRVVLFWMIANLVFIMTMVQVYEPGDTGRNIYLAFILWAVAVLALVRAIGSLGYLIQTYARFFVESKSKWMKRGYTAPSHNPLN

“13-(4-Isopropylbenzyl)-9-O-octylberberrubine chloride [Compound No. 52]”: in assay [1], the “Relative activity Enzyme 1” value was 2 (Compounds having the inhibitory activity at 2-fold, 4-fold, 8-fold and 16-fold higher concentrations than that of polyoxin D were given the values of 4, 3, 2 and 1, respectively). Further, the “Relative activity Enzyme 2” value in assay [2] was 6 (compounds having the inhibitory activity at ½, ¼ and ⅛ lower concentrations than that of polyoxin D were given the values of 6, 7 and 8, respectively). Further, the “MIC (minimum inhibitory concentration)” value was 4 µg/mL in [3]; 2 µg/mL in assay [4]; 4 µg/mL in [5]; 0.25 µg/mL in assay [6]; 0.25 µg/mL in assay [7]; 1 µg/mL in assay [8]. For the same substance, the “MIC (minimum inhibitory concentration)” value was 1 µg/mL in the assay with Candida krusei ATCC 6258; 0.5 µg/mL in [9]; 1 µg/mL in assay [10]; 0.125 µg/mL in assay [11]; 0.5 µg/mL in [12]; 2 µg/mL in [13].

Take “13-(4-Isopropylbenzyl)-9-O-octylberberrubine iodide [Compound No. 20]”: the “Relative activity Enzyme 1” value in assay [1] was 3 (Compounds having the inhibitory activity at 2-fold, 4-fold, 8-fold and 16-fold higher concentrations than that of polyoxin D were given the values of 4, 3, 2 and 1, respectively). Further, in assay [2], the “Relative activity Enzyme 2” value was 5 (A compound having the same inhibitory activity as that of polyoxin D at the same concentration was given the value 5). Further, the “MIC (minimum inhibitory concentration)” value in [3] was found to be 4 µg/mL; in assay [4], 2 µg/mL; in assay [5] it was 4 µg/mL; in assay [6] it was 0.25 µg/mL; in assay [7], 0.25 µg/mL; in assay [8] it was 2 µg/mL. Further, the “MIC (minimum inhibitory concentration)” value in the assay on Candida krusei ATCC 6258 is 1 µg/mL; in assay [9], 0.5 µg/mL; in [10], 2 µg/mL; in assay [11], 0.125 µg/mL; in assay [12] it was 1 µg/mL; in [13] it was 2 µg/mL.

Take “13-(4-isopropylbenzyl)-9-O-crotylberberrubine chloride [Compound No. 56]”: the “Relative activity Enzyme 1” value in assay [1] is 2 (Compounds having the inhibitory activity at 2-fold, 4-fold, 8-fold and 16-fold higher concentrations than that of polyoxin D were given the values of 4, 3, 2 and 1, respectively). The “Relative activity Enzyme 2” value in assay [2] is 6 (compounds having the inhibitory activity at ½, ¼ and ⅛ lower concentrations than that of polyoxin D were given the values of 6, 7 and 8, respectively). Further, the “MIC (minimum inhibitory concentration)” value is 8 µg/mL in assay [3]; 2 µg/mL in [4]; 4 µg/mL in assay [5]; 0.5 µg/mL in [6]; 0.5 µg/mL in [7]; 4 µg/mL in assay [8]. For the same substance, the “MIC (minimum inhibitory concentration)” value against Candida krusei ATCC 6258 is 1 µg/mL; in assay [9], 1 µg/mL; in assay [10], 4 µg/mL; in [11], 0.5 µg/mL; in assay [12], 1 µg/mL; in assay [13], 4 µg/mL.

For the substance “13-(4-tert-Butylbenzyl)-9-O-(3-hydroxypropyl)berberrubine chloride [Compound No. 43]”, the “Relative activity Enzyme 1” value in [1] is 4 (Compounds having the inhibitory activity at 2-fold, 4-fold, 8-fold and 16-fold higher concentrations than that of polyoxin D were given the values of 4, 3, 2 and 1, respectively). Further, the “Relative activity Enzyme 2” value in assay [2] was 7 (compounds having the inhibitory activity at ½, ¼ and ⅛ lower concentrations than that of polyoxin D were given the values of 6, 7 and 8, respectively). Besides, the “MIC (minimum inhibitory concentration)” value turned out to be 8 µg/mL in assay [3]; 2 µg/mL in [4]; 8 µg/mL in [5]; 0.5 µg/mL in assay [6]; 0.5 µg/mL in assay [7]; 2 µg/mL in assay [8]. For the same substance, the “MIC (minimum inhibitory concentration)” value against Candida krusei ATCC 6258 was 1 µg/mL; in [9], 2 µg/mL; in assay [10], 2 µg/mL; in assay [11], 0.5 µg/mL; in [12] it was 1 µg/mL; in [13] it was 4 µg/mL.

With “13-(4-tert-Butylbenzyl)-9-O-(3-hydroxypropyl)berberrubine iodide [Compound No. 11]”, the “Relative activity Enzyme 1” value in [1] was 4 (Compounds having the inhibitory activity at 2-fold, 4-fold, 8-fold and 16-fold higher concentrations than that of polyoxin D were given the values of 4, 3, 2 and 1, respectively). In [2], the “Relative activity Enzyme 2” value was 6 (compounds having the inhibitory activity at ½, ¼ and ⅛ lower concentrations than that of polyoxin D were given the values of 6, 7 and 8, respectively). Further, the “MIC (minimum inhibitory concentration)” value in assay [3] came out at 8 µg/mL; in assay [4], 2 µg/mL; in assay [5] it was 8 µg/mL; in assay [6], 0.5 µg/mL; in assay [7], 0.5 µg/mL; in assay [8] it was 2 µg/mL. The “MIC (minimum inhibitory concentration)” value was found to be 1 µg/mL in the assay on Candida krusei ATCC 6258; 2 µg/mL in assay [9]; 2 µg/mL in assay [10]; 0.5 µg/mL in [11]; 1 µg/mL in [12]; 4 µg/mL in assay [13].

With “13-(4-tert-Butylbenzyl)-9-O-(4-isopropylbenzyl)berberrubine bromide [Compound No. 16]”, in [1], the “Relative activity Enzyme 1” value was 3 (Compounds having the inhibitory activity at 2-fold, 4-fold, 8-fold and 16-fold higher concentrations than that of polyoxin D were given the values of 4, 3, 2 and 1, respectively). Further, in assay [2], the “Relative activity Enzyme 2” value was 5 (A compound having the same inhibitory activity as that of polyoxin D at the same concentration was given the value 5). In addition, the “MIC (minimum inhibitory concentration)” value stood at 8 µg/mL in assay [3]; 4 µg/mL in assay [4]; 8 µg/mL in assay [5]; 1 µg/mL in [6]; 1 µg/mL in assay [7]; 2 µg/mL in assay [8]. Also, the “MIC (minimum inhibitory concentration)” value against Candida krusei ATCC 6258 came to 2 µg/mL; in [9], 4 µg/mL; in assay [10] it was 8 µg/mL; in [11], 1 µg/mL; in assay [12], 2 µg/mL; in assay [13], 8 µg/mL.

The values above are taken from patent US7915276B2, “Berberrubine derivatives having antifungal activities” (priority 2006, dated 2011).
